Here are results for 23 molecules from patent EP4342530A1, “SORTILIN MODULATORS” (Insusense ApS, priority 2022, dated 2024).

One may read the IC50 as the concentration that gives 50% inhibition. One may read the Kd as the constant that tells how readily two partners part at equilibrium.

Several values for one entry are separate records, joined by “and”; a condition that tells them apart may be missing. Identical values can stand only once.

The target in one experiment is T1, h-Sortilin (Homo sapiens, UniProt Q99523).
T1 sequence (Q99523 78-831): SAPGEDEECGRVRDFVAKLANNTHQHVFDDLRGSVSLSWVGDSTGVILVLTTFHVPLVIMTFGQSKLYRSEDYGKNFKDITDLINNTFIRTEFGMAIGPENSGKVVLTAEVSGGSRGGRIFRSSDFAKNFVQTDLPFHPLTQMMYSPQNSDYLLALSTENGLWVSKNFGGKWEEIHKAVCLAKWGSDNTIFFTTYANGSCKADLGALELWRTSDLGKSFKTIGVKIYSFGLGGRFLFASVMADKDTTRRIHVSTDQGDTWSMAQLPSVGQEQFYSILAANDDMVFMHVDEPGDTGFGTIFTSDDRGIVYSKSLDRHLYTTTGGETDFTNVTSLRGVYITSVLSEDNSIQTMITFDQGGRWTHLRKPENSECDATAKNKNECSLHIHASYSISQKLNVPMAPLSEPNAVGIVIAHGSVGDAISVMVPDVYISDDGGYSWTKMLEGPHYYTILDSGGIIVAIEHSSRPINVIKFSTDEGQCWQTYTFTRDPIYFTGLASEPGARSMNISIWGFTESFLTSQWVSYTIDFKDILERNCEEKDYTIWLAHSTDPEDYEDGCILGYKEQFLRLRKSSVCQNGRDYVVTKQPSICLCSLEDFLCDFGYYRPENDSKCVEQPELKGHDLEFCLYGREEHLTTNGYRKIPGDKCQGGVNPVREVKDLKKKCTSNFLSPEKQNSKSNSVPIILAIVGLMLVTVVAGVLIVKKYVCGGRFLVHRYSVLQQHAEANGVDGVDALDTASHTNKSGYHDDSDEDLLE
Nature of the experiment: Neurotensin scintillation proximity assay (displacement of [3H]-neurotensin binding). Conditions: 150 nM 6his-Sortilin, 5 nM [3H]-Neurotensin; average of at least 2 determinations; read-out: IC50 [3H]Neurotensin SPA. How it is done: The exemplified compounds of the invention were tested in a Neurotensin (NTS) scintillation proximity assay (SPA). NTS, which is a 13 amino acid neuropeptide, is a sortilin ligand. The IC50 is a measure of the amount of the compound required to inhibit the binding of NTS to sortilin by 50%. The skilled person will recognise that the lower the IC50 value, the less of the compound needed to achieve the desired effect, and as a result, the chances of undesirable off-target effects are reduced.
Compound affinity was determined by measuring the displacement of [3H]-neurotensin binding to h-Sortilin in SPA format. Total volume of 40 µl in 50 mM HEPES pH 7.4 assay buffer containing 100 mM NaCl, 2.0 mM CaCl2, 0.1% BSA and 0.1% Tween-20. Compound pre-incubation for 30 minutes at room temperature with 150 nM of 6his-Sortilin before 5 nM [3H]-Neurotensin and Ni chelate imaging beads (Perkin Elmer) were added, after 6 hours the plate was read on a ViewLux with 360 s exposure time. Dose-response evaluation of compounds was performed with 8 concentrations of drugs (covering 3 decades). IC50 values were calculated by nonlinear regression using the sigmoid concentration-response (variable slope) using CDD Vault software. All values reported are average of at least 2 determinations.
In general terms: Scintillation proximity formats need no separation of bound from free tracer.

The target of another experiment is T2, Sortilin (Homo sapiens, UniProt Q99523).
T2 construct: purchased Bio-Techne Ltd 3154-ST-050
T2 sequence (Q99523 78-755 limits assumed): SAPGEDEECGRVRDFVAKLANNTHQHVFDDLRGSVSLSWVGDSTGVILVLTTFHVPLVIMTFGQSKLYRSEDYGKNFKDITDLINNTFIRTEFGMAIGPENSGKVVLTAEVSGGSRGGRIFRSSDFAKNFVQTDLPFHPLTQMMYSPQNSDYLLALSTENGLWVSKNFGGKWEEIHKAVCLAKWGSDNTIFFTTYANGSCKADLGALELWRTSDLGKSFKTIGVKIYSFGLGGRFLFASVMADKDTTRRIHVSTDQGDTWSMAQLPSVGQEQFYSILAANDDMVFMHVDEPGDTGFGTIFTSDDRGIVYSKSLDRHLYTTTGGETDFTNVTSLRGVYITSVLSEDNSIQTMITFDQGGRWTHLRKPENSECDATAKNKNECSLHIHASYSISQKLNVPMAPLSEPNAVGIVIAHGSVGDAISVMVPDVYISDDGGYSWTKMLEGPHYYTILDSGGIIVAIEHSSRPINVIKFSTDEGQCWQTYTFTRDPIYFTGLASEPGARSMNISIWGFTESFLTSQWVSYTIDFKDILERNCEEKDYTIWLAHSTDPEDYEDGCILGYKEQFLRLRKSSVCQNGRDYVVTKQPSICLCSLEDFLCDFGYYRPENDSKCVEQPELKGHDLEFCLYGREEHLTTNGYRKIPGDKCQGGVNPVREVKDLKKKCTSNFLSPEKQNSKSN
Kind of experiment: Creoptix (GCI) binding kinetics, human Sortilin. Conditions: Species Human, screened at 1 µM, 25 degrees Celsius. How it is done: Creoptix (GCI) method - using SEQ ID NO.4 (Murine sortillin)
A protein, bound to a surface, is bathed in a solution containing potential ligands giving rise to binding kinetics to generate Kon and Koff rates, as well as a Kd.
All buffers described were filtered using a 0.2µm filter (Product number: 10300461, Nalgene) and degassed for 15 minutes prior to use.
A flow cell temperature of 25 degrees Celsius was used throughout the experiment.
A 4PCH chip was conditioned across all flow cells using 0.2 X concentration running buffer (running buffer composition: 1XHBS-N, pH 7.4, 3.4 mM EDTA, 1% DMSO) using pre-set conditioning wizard (WAVE control software) injecting: 0.1 M borate, 1 M NaCl (pH 9) followed by three start-up injections of 0.2 X running buffer.
A buffer exchange was performed and 1x running buffer (1XHBS-N, pH 7.4, 3.4 mM EDTA, 1% DMSO) used during the immobilisation procedure: An initial injection of EDC/NHS (mixed in 1:1 ratio) was performed across all 4-flow cells to activate the surface for amine coupling of ligands.
Recombinant Sortilin aliquots were thawed quickly by hand and centrifuged at 13,300 rpm for 10 minutes. A 10 µg/ml protein solution was then made in pH 5.0 acetate and injected once for 20 minutes over flow-cells 2, 3 and 4 for human, human (flow cells 2 & 3), and mouse Sortilin respectively followed by a 60 second dissociation period.
A final 7-minute passivation injection of 50 mM tris was used across all flow cells.
A flow rate of 10 µl/min was used for all conditioning and immobilisation cycles.
Compounds were screened at 1 µM using the in-built 'intermediate binders' settings: 100 ul/min, 45 s baseline, 25 s association, 300 s dissociation, with blanks every 5th sample and a DMSO correction (1.5 % DMSO at the start and end of the experiment as well as every 20 cycles. An acquisition rate of 10 Hz was used throughout the experiment.
Compounds were screened at a final assay concentration of 1 µM and a final DMSO concentration was 1 %. To achieve this, compounds were diluted in DMSO from 10 mM stocks to 100 µM (100 x final assay concentration) then diluted 1:100 in running buffer which contained no DMSO to establish a final assay concentration of compound of 1 µM and a final DMSO concentration of 1 % [DMSO].
Compounds and DMSO were mixed by plate shaking at 1000 rpm for 60 seconds using a Bioshake instrument.
A flow rate of 100 µl/min was used throughout the experiment.
Data was evaluated using the RAPID kinetic analysis tool in the GCI WAVE_control software with data fitted using a standard 1:1 kinetic BioModel.

`CC(C)(C)CC[C@H](NCc1ccc(Oc2ccccc2)nc1)C(=O)O` [Example 38, (2S)-5,5-dimethyl-2-{[(6-phenoxypyridin-3-yl)methyl]amino}hexanoic acid]: the IC50 on h-Sortilin is 0.34 µM. For the same molecule, the Kd on Sortilin (Form of Compound Mesylate salt) was found to be 0.0491 µM.
Consider `CC(C)(C)CC[C@H](N[C@@H](c1ccc2c(c1)CCCC2)C(F)(F)F)C(=O)O` [Example 47], for which the IC50 on h-Sortilin worked out at 0.16 µM. Further, binding at Sortilin (Form of Compound Free acid) was put at a Kd of 0.0753 µM.
Regarding `CC(C)(C)CC[C@H](NCc1ccc2c(c1)CCOC2)C(=O)O` [Example 1, (S)-2-((isochroman-6-ylmethyl)amino)-5,5-dimethylhexanoic acid], the half-maximal inhibitory concentration (IC50) at h-Sortilin stood at 0.27 µM. The equilibrium dissociation constant (Kd) at Sortilin (Form of Compound Free acid) is 0.107 µM.
`CC(C)(C)CC[C@H](NCc1cccc(Oc2ccccc2)c1)C(=O)O` [Example 34]: the IC50 on h-Sortilin worked out at 0.82 µM. On Sortilin (Form of Compound Free acid), this molecule had a dissociation constant Kd of 0.216 µM.
The corresponding values for `CC(C)(C)CC[C@H](N[C@@H](c1cnc2c(c1)CCCC2)C(F)(F)F)C(=O)O` [Example 33, (2S)-5,5-dimethyl-2-{[(1S)-2,2,2-trifluoro-1-(5,6,7,8-tetrahydroquinolin-3-yl)ethyl]amino}hexanoic acid] are 0.13 µM and 0.028 µM.
The matching figures for `C[C@H](N[C@@H](CCC(C)(C)C)C(=O)O)c1ccc(Oc2ccccc2)nc1` [Example 44]: 0.74 µM and 0.127 µM.
The corresponding values for `CC(C)(C)CC[C@H](NCc1cnc2c(c1)CCC2)C(=O)O` [Example 8, (2S)-2-[({5H,6H,7H-cyclopenta[b]pyridin-3-yl}methyl)amino]-5,5-dimethylhexanoic acid] are 0.5 µM and 0.191 µM.
At Sortilin (Form of Compound Free acid), `C[C@@H](N[C@@H](CCC(C)(C)C)C(=O)O)c1ccc2c(c1)N(C)CCC2` [Example 48] displayed a Kd of 0.0462 µM.
Regarding `C[C@H](N[C@@H](CCC(C)(C)C)C(=O)O)c1ccc2c(c1)CCC2` [Example 14], on h-Sortilin, the IC50 worked out at 0.28 µM. Also, the dissociation constant (Kd) on Sortilin (Form of Compound Mesylate salt) is 0.0351 µM.
Consider `CC(C)(C)CC[C@H](NCc1ccc2c(c1)OCCC2)C(=O)O` [Example 5, (2S)-2-{[(3,4-dihydro-2H-1-benzopyran-7-yl)methyl]amino}-5,5-dimethylhexanoic acid], for which the 50% inhibitory concentration (IC50) at h-Sortilin was determined as 0.31 µM. On Sortilin (Form of Compound Free acid), this molecule registered a Kd of 0.0634 µM.
The matching figures for `C[C@@H](N[C@@H](CCC(C)(C)C)C(=O)O)c1ccc2c(c1)OCO2` [Example 54]: 0.38 µM and 0.105 µM.
For `CC(C)(C)CC[C@H](N[C@@H](c1ccc2c(c1)CCCC2)C(F)F)C(=O)O` [Example 45], at h-Sortilin, the half-maximal inhibitory concentration (IC50) was found to be 0.12 µM. Further, binding on Sortilin (Form of Compound Free acid) was characterised by a dissociation constant (Kd) of 0.0439 µM.
For the molecule “(2S)-5,5-dimethyl-2-{[(5,6,7,8-tetrahydronaphthalen-2-yl)methyl]amino}hexanoic acid [Example 4]”, the half-inhibitory concentration (IC50) at h-Sortilin came to 0.12 µM. Further, the results for the Kd at Sortilin (Form of Compound Free acid), on Sortilin (Form of Compound HCl salt) and on Sortilin (Form of Compound Mesylate salt) were 0.0409 µM, 0.0517 µM and 0.0425 µM, respectively.
With `C[C@@H](N[C@@H](CCC(C)(C)C)C(=O)O)c1ccc2c(c1)OCCO2` [Example 51], the half-inhibitory concentration (IC50) at h-Sortilin was 0.28 µM. On Sortilin (Form of Compound Free acid), binding was characterised by a dissociation constant (Kd) of 0.181 µM.
With `CC(C)(C)CC[C@H](N[C@H](c1ccc2c(c1)CCCC2)C(F)F)C(=O)O` [Example 71], the IC50 at h-Sortilin came to 0.59 µM. In addition, on Sortilin (Form of Compound Free acid), binding was put at a Kd of 0.193 µM.
In the case of `CN1C(=O)COc2cc(CN[C@@H](CCC(C)(C)C)C(=O)O)ccc21` [Example 25, (2S)-5,5-dimethyl-2-{[(4-methyl-3-oxo-3,4-dihydro-2H-1,4-benzoxazin-7-yl)methyl]amino}hexanoic acid], at h-Sortilin, the half-inhibitory concentration (IC50) was determined as 0.95 µM. Further, the Kd at Sortilin (Form of Compound Free acid) was 0.563 µM and 0.158 µM.
Consider `C[C@@H](N[C@@H](CCC(C)(C)C)C(=O)O)c1ccc2c(c1)CCC2` [Example 13], for which the IC50 on h-Sortilin turned out to be 0.21 µM. Besides, the equilibrium dissociation constant (Kd) on Sortilin (Form of Compound Mesylate salt) came out at 0.0575 µM.
As for `C[C@H](N[C@@H](CCC(C)(C)C)C(=O)O)c1ccc2c(c1)OCCO2` [Example 61], the IC50 at h-Sortilin was 0.35 µM. The molecule further yielded a Kd at Sortilin (Form of Compound Free acid) of 0.144 µM.
As for `CN1C(=O)CCc2ccc(CN[C@@H](CCC(C)(C)C)C(=O)O)cc21` [Example 28, (2S)-5,5-dimethyl-2-{[(1-methyl-2-oxo-1,2,3,4-tetrahydroquinolin-7-yl)methyl]amino}hexanoic acid], the IC50 on h-Sortilin was 0.22 µM. Besides, the dissociation constant Kd at Sortilin (Form of Compound Free acid) was 0.317 µM.
For the molecule `C[C@@H](N[C@@H](CCC(C)(C)C)C(=O)O)c1ccc2c(c1)CCCC2` [Example 11, (S)-5,5-dimethyl-2-(((R)-1-(5,6,7,8-tetrahydronaphthalen-2-yl)ethyl)amino)hexanoic acid], at h-Sortilin, the 50% inhibitory concentration (IC50) was 0.12 µM. Moreover, the Kd worked out at 0.0366 µM on Sortilin (Form of Compound Free acid) and 0.0407 µM on Sortilin (Form of Compound Mesylate salt).
For `CC(C)(C)CC[C@H](NCc1ccnc(Oc2ccccc2)c1)C(=O)O` [Example 76], the concentration for half-maximal inhibition (IC50) at h-Sortilin was found to be 0.23 µM. This molecule also yielded a Kd at Sortilin (Form of Compound Free acid) of 0.0583 µM.
The corresponding values for `CC(C)(C)CC[C@H](NCc1ccc2c(c1)CCC2)C(=O)O` [Example 6, (2S)-2-{[(2,3-dihydro-1H-inden-5-yl)methyl]amino}-5,5-dimethylhexanoic acid] are 0.21 µM and 0.117 µM.
Regarding `CC(C)(C)CC[C@H](NCc1cnc2c(c1)CCCC2)C(=O)O` [Example 7, (S)-5,5-dimethyl-2-(((5,6,7,8-tetrahydroquinolin-3-yl)methyl)amino)hexanoic acid], the IC50 on h-Sortilin came out at 0.14 µM. On Sortilin (Form of Compound Free acid), this molecule registered a Kd of 0.264 µM.
